Results as given in ChEMBL document CHEMBL1151745, “Identification of potent, selective, and metabolically stable peptide antagonists to the calcitonin gene-related peptide (CGRP) receptor” (J Med Chem, 2008).
Calls of active or inactive are those of the source. The calls are words filed in the database; no cut-off is given here. Where a SMILES comes first, the peptide text is derived from it. [ ]: non-standard residue; d: D form. hArg = N=C(N)NCCCC[C@H](N)C(=O)O; Tic = O=C(O)[C@@H]1Cc2ccccc2CN1; Cit = NC(=O)NCCC[C@H](N)C(=O)O

Molecular target: Calcitonin gene-related peptide type 1 receptor (Homo sapiens) (UniProt Q16602)
Sequence (Q16602 whole entry, looked up): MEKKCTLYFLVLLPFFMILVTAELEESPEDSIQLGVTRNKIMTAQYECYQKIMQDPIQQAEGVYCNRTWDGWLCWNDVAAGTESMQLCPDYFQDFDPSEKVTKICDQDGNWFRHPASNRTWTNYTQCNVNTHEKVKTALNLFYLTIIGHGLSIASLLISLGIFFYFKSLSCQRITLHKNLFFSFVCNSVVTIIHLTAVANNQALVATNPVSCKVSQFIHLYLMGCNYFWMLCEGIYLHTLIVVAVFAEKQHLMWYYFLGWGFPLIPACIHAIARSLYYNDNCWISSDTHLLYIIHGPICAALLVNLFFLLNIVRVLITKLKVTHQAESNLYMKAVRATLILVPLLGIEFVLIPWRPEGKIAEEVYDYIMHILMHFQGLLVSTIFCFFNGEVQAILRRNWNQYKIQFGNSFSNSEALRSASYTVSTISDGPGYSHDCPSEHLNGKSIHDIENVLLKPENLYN
Assay: Agonist activity at human CGRP1 receptor in human SK-N-MC cells

Activity, inactive:
CC(=O)N[C@@H](Cc1c[nH]c2ccccc12)C(=O)N[C@H](C(=O)N[C@H](C(=O)N[C@@H](Cc1cnc[nH]1)C(=O)N[C@@H](CCCNC(N)=O)C(=O)N[C@@H](CC(C)C)C(=O)N[C@@H](C)C(=O)NCC(=O)N[C@@H](CC(C)C)C(=O)N[C@@H](CC(C)C)C(=O)N[C@@H](CO)C(=O)N[C@@H](CCCNC(N)=O)C(=O)N[C@@H](CO)C(=O)NCC(=O)NCC(=O)N[C@H](C(=O)N[C@H](C(=O)N[C@@H](CCCCNC(=N)N)C(=O)N[C@@H](CCCCN)C(=O)N[C@@H](CC(N)=O)C(=O)N[C@@H](Cc1ccccc1)C(=O)N[C@H](C(=O)N1CCC[C@H]1C(=O)N[C@H](C(=O)N[C@@H](CC(=O)O)C(=O)N[C@H](C(=O)NCC(=O)N1CCC[C@@H]1C(=O)N[C@@H](Cc1ccccc1)C(=O)N[C@@H](C)C(=O)N[C@@H](Cc1ccccc1)C(N)=O)C(C)C)[C@@H](C)O)C(C)C)C(C)C)C(C)C)[C@@H](C)O)C(C)C
CC(=O)N[C@@H](Cc1c[nH]c2ccccc12)C(=O)N[C@H](C(=O)N[C@H](C(=O)N[C@@H](Cc1cnc[nH]1)C(=O)N[C@@H](CCCNC(N)=O)C(=O)N[C@@H](CC(C)C)C(=O)N[C@@H](C)C(=O)NCC(=O)N[C@@H](CC(C)C)C(=O)N[C@@H](CC(C)C)C(=O)N[C@@H](CO)C(=O)N[C@@H](CCCNC(N)=O)C(=O)N[C@@H](CO)C(=O)NCC(=O)NCC(=O)N[C@H](C(=O)N[C@H](C(=O)N[C@@H](CCCCNC(=N)N)C(=O)N[C@@H](CCCCN)C(=O)N[C@@H](CC(N)=O)C(=O)N[C@@H](Cc1ccccc1)C(=O)N[C@H](C(=O)N1CCC[C@H]1C(=O)N[C@H](C(=O)N[C@@H](CC(=O)O)C(=O)N[C@H](C(=O)NCC(=O)N(C)CC(=O)N[C@@H](Cc1ccccc1)C(=O)N[C@@H](C)C(=O)N[C@@H](Cc1ccccc1)C(N)=O)C(C)C)[C@@H](C)O)C(C)C)C(C)C)C(C)C)[C@@H](C)O)C(C)C
CC(=O)N[C@@H](Cc1c[nH]c2ccccc12)C(=O)N[C@H](C(=O)N[C@H](C(=O)N[C@@H](Cc1cnc[nH]1)C(=O)N[C@@H](CCCNC(N)=O)C(=O)N[C@@H](CC(C)C)C(=O)N[C@@H](C)C(=O)NCC(=O)N[C@@H](CC(C)C)C(=O)N[C@@H](CC(C)C)C(=O)N[C@@H](CO)C(=O)N[C@@H](CCCNC(=N)N)C(=O)N[C@@H](CO)C(=O)NCC(=O)NCC(=O)N[C@H](C(=O)N[C@H](C(=O)N[C@@H](CCCNC(=N)N)C(=O)N[C@@H](CCCCN)C(=O)N[C@@H](CC(N)=O)C(=O)N[C@@H](Cc1ccccc1)C(=O)N[C@H](C(=O)N1CCC[C@H]1C(=O)N[C@H](C(=O)N[C@@H](CC(=O)O)C(=O)N[C@H](C(=O)NCC(=O)N1CCC[C@H]1C(=O)N[C@@H](Cc1ccccc1)C(=O)N[C@@H](C)C(=O)N[C@@H](Cc1ccccc1)C(N)=O)C(C)C)[C@@H](C)O)C(C)C)C(C)C)C(C)C)[C@@H](C)O)C(C)C
CC(=O)N[C@@H](Cc1c[nH]c2ccccc12)C(=O)N[C@H](C(=O)N[C@H](C(=O)N[C@@H](Cc1cnc[nH]1)C(=O)N[C@@H](CCCNC(N)=O)C(=O)N[C@@H](CC(C)C)C(=O)N[C@@H](C)C(=O)NCC(=O)N[C@@H](CC(C)C)C(=O)N[C@@H](CC(C)C)C(=O)N[C@@H](CO)C(=O)N[C@@H](CCCNC(N)=O)C(=O)N[C@@H](CO)C(=O)NCC(=O)NCC(=O)N[C@H](C(=O)N[C@H](C(=O)N[C@@H](CCCNC(=N)N)C(=O)N[C@@H](CCCCN)C(=O)N[C@@H](CC(N)=O)C(=O)N[C@@H](Cc1ccccc1)C(=O)N[C@H](C(=O)N1CCC[C@H]1C(=O)N[C@H](C(=O)N[C@@H](CC(=O)O)C(=O)N[C@H](C(=O)NCC(=O)N1C2CCCCC2C[C@H]1C(=O)N[C@@H](Cc1ccccc1)C(=O)N[C@@H](C)C(=O)N[C@@H](Cc1ccccc1)C(N)=O)C(C)C)[C@@H](C)O)C(C)C)C(C)C)C(C)C)[C@@H](C)O)C(C)C (stereo partly specified)
CC(=O)N[C@@H](Cc1c[nH]c2ccccc12)C(=O)N[C@H](C(=O)N[C@H](C(=O)N[C@@H](Cc1cnc[nH]1)C(=O)N[C@@H](CCCNC(N)=O)C(=O)N[C@@H](CC(C)C)C(=O)N[C@@H](C)C(=O)NCC(=O)N[C@@H](CC(C)C)C(=O)N[C@@H](CC(C)C)C(=O)N[C@@H](CO)C(=O)N[C@@H](CCCNC(N)=O)C(=O)N[C@@H](CO)C(=O)NCC(=O)NCC(=O)N[C@H](C(=O)N[C@H](C(=O)N[C@@H](CCCCNC(=N)N)C(=O)N[C@@H](CCCCN)C(=O)N[C@@H](CC(N)=O)C(=O)N[C@@H](Cc1ccccc1)C(=O)N[C@H](C(=O)N1CCC[C@H]1C(=O)N[C@H](C(=O)N[C@@H](CC(=O)O)C(=O)N[C@H](C(=O)NCC(=O)N1C[C@H](O)C[C@H]1C(=O)N[C@@H](Cc1ccccc1)C(=O)N[C@@H](C)C(=O)N[C@@H](Cc1ccccc1)C(N)=O)C(C)C)[C@@H](C)O)C(C)C)C(C)C)C(C)C)[C@@H](C)O)C(C)C
CC(=O)N[C@@H](Cc1c[nH]c2ccccc12)C(=O)N[C@H](C(=O)N[C@H](C(=O)N[C@@H](Cc1cnc[nH]1)C(=O)N[C@@H](CCCNC(N)=O)C(=O)N[C@@H](CC(C)C)C(=O)N[C@@H](C)C(=O)NCC(=O)N[C@@H](CC(C)C)C(=O)N[C@@H](CC(C)C)C(=O)N[C@@H](CO)C(=O)N[C@@H](CCCNC(N)=O)C(=O)N[C@@H](CO)C(=O)NCC(=O)NCC(=O)N[C@H](C(=O)N[C@H](C(=O)N[C@@H](CCCCNC(=N)N)C(=O)N[C@@H](CCCCN)C(=O)N[C@@H](CC(N)=O)C(=O)N[C@@H](Cc1ccccc1)C(=O)N[C@H](C(=O)N1CCC[C@H]1C(=O)N[C@H](C(=O)N[C@@H](CC(=O)O)C(=O)N[C@H](C(=O)NCC(=O)N1CCC[C@H]1C(=O)N1Cc2ccccc2C[C@H]1C(=O)N[C@@H](C)C(=O)N[C@@H](Cc1ccccc1)C(N)=O)C(C)C)[C@@H](C)O)C(C)C)C(C)C)C(C)C)[C@@H](C)O)C(C)C (Ac-WVTH[Cit]LAGLLS[Cit]SGGVV[hArg]KNFVPTDVGP[Tic]AF-NH2)
CC(=O)N[C@@H](Cc1c[nH]c2ccccc12)C(=O)N[C@H](C(=O)N[C@H](C(=O)N[C@@H](Cc1cnc[nH]1)C(=O)N[C@@H](CCCNC(N)=O)C(=O)N[C@@H](CC(C)C)C(=O)N[C@@H](C)C(=O)NCC(=O)N[C@@H](CC(C)C)C(=O)N[C@@H](CC(C)C)C(=O)N[C@@H](CO)C(=O)N[C@@H](CCCNC(N)=O)C(=O)N[C@@H](CO)C(=O)NCC(=O)NCC(=O)N[C@H](C(=O)N[C@H](C(=O)N[C@@H](CCCCNC(=N)N)C(=O)N[C@@H](CCCCN)C(=O)N[C@@H](CC(N)=O)C(=O)N[C@@H](Cc1ccccc1)C(=O)N[C@H](C(=O)N1CCC[C@H]1C(=O)N[C@H](C(=O)N[C@@H](CC(=O)O)C(=O)N[C@H](C(=O)NCC(=O)N1CCC[C@H]1CC(=O)N[C@@H](Cc1ccccc1)C(=O)N[C@@H](C)C(=O)N[C@@H](Cc1ccccc1)C(N)=O)C(C)C)[C@@H](C)O)C(C)C)C(C)C)C(C)C)[C@@H](C)O)C(C)C
CC(=O)N[C@@H](Cc1c[nH]c2ccccc12)C(=O)N[C@H](C(=O)N[C@H](C(=O)N[C@@H](Cc1cnc[nH]1)C(=O)N[C@@H](CCCNC(N)=O)C(=O)N[C@@H](CC(C)C)C(=O)N[C@@H](C)C(=O)NCC(=O)N[C@@H](CC(C)C)C(=O)N[C@@H](CC(C)C)C(=O)N[C@@H](CO)C(=O)N[C@@H](CCCNC(N)=O)C(=O)N[C@@H](CO)C(=O)NCC(=O)NCC(=O)N[C@H](C(=O)N[C@H](C(=O)N[C@@H](CCCCNC(=N)N)C(=O)N[C@@H](CCCCN)C(=O)N[C@@H](CC(N)=O)C(=O)N[C@@H](Cc1ccc2ccccc2c1)C(=O)N[C@H](C(=O)N1CCC[C@H]1C(=O)N[C@H](C(=O)N[C@@H](CC(=O)O)C(=O)N[C@H](C(=O)NCC(=O)N1C2CCCCC2C[C@H]1C(=O)N[C@@H](Cc1ccccc1)C(=O)N[C@@H](C)C(=O)N[C@@H](Cc1ccc2ccccc2c1)C(N)=O)C(C)C)[C@@H](C)O)C(C)C)C(C)C)C(C)C)[C@@H](C)O)C(C)C (stereo partly specified)
CC(=O)N[C@H](C(=O)N[C@H](C(=O)N[C@@H](Cc1cnc[nH]1)C(=O)N[C@@H](CCCNC(=N)N)C(=O)N[C@@H](CC(C)C)C(=O)N[C@@H](C)C(=O)NCC(=O)N[C@@H](CC(C)C)C(=O)N[C@@H](CC(C)C)C(=O)N[C@@H](CO)C(=O)N[C@@H](CCCNC(=N)N)C(=O)N[C@@H](CO)C(=O)NCC(=O)NCC(=O)N[C@H](C(=O)N[C@H](C(=O)N[C@@H](CCCNC(=N)N)C(=O)N[C@@H](CCCCN)C(=O)N[C@@H](CC(N)=O)C(=O)N[C@@H](Cc1ccccc1)C(=O)N[C@H](C(=O)N1CCC[C@H]1C(=O)N[C@H](C(=O)N[C@@H](CC(=O)O)C(=O)N[C@H](C(=O)NCC(=O)N1CCC[C@H]1C(=O)N[C@@H](Cc1ccccc1)C(=O)N[C@@H](C)C(=O)N[C@@H](Cc1ccccc1)C(N)=O)C(C)C)[C@@H](C)O)C(C)C)C(C)C)C(C)C)[C@@H](C)O)C(C)C (Ac-VTHRLAGLLSRSGGVVRKNFVPTDVGPFAF-NH2)
CC(=O)N[C@@H](Cc1c[nH]c2ccccc12)C(=O)N[C@H](C(=O)N[C@H](C(=O)N[C@@H](Cc1cnc[nH]1)C(=O)N[C@@H](CCCNC(N)=O)C(=O)N[C@@H](CC(C)C)C(=O)N[C@@H](C)C(=O)NCC(=O)N[C@@H](CC(C)C)C(=O)N[C@@H](CC(C)C)C(=O)N[C@@H](CO)C(=O)N[C@@H](CCCNC(N)=O)C(=O)N[C@@H](CO)C(=O)NCC(=O)NCC(=O)N[C@H](C(=O)N[C@H](C(=O)N[C@@H](CCCCNC(=N)N)C(=O)N[C@@H](CCCCN)C(=O)N[C@@H](CC(N)=O)C(=O)N[C@@H](Cc1ccccc1)C(=O)N[C@H](C(=O)N1CCC[C@H]1C(=O)N[C@H](C(=O)N[C@@H](CC(=O)O)C(=O)N[C@H](C(=O)NCC(=O)NC1(C(=O)N[C@@H](Cc2ccccc2)C(=O)N[C@@H](C)C(=O)N[C@@H](Cc2ccccc2)C(N)=O)CCNCC1)C(C)C)[C@@H](C)O)C(C)C)C(C)C)C(C)C)[C@@H](C)O)C(C)C
CC(=O)N[C@@H](Cc1c[nH]c2ccccc12)C(=O)N[C@H](C(=O)N[C@H]1CCC(=O)NCCCC[C@@H](C(=O)NCC(=O)N[C@H]2CCC(=O)NCCCC[C@@H](C(=O)NCC(=O)NCC(=O)N[C@H](C(=O)N[C@H](C(=O)N[C@@H](CCCCNC(=N)N)C(=O)N[C@@H](CCCCN)C(=O)N[C@@H](CC(N)=O)C(=O)N[C@@H](Cc3ccccc3)C(=O)N[C@H](C(=O)N3CCC[C@H]3C(=O)N[C@H](C(=O)N[C@@H](CC(=O)O)C(=O)N[C@H](C(=O)NCC(=O)N3CCC[C@H]3C(=O)N[C@@H](Cc3ccccc3)C(=O)N[C@@H](C)C(=O)N[C@@H](Cc3ccccc3)C(N)=O)C(C)C)[C@@H](C)O)C(C)C)C(C)C)C(C)C)NC(=O)[C@H](CCCNC(=N)N)NC(=O)[C@H](CO)NC(=O)[C@H](CC(C)C)NC2=O)NC(=O)[C@H](CC(C)C)NC(=O)[C@H](CCCNC(=N)N)NC(=O)[C@H](Cc2cnc[nH]2)NC1=O)C(C)C
